Measured values taken from US20190038624A1 (priority 2017, published 2019).

Assays:
[1] = tested on: patients with probable MSA; type: in vivo, human; details: oral 200 mg daily
Procedure: Five patients fulfilled the consensus criteria for “probable MSA” and received oral Nilotinib 200 mg daily for 24 weeks. Disease progression was monitored every 4 weeks by measuring the patient's motor and non-motor symptoms with the Unified Multiple System Atrophy Rating Scale (UMSARS). Mini Mental State Examination (MMSE) was used to screen for cognitive impairment. […] However, these AEs resolved with continued administration of the drug. […] Furthermore, there was a significant decline of 6.8 and 2.2 points in the UMSARS and UMSARS-II, respectively, compared to baseline (see FIG. 2). MMSE results were normal throughout treatment.

PD and DLB subjects = details: 24 weeks of treatment with 300 mg Nilotinib; cited from earlier work
[2] = tested on: patient with probable multiple system atrophy; type: in vivo, human; details: single MSA patient, oral Nilotinib 200 mg
From the text: A person who presented with inability to walk. The disease started 4 years ago with a slowing of their gait and tremors at rest in both hands. […] They had been experiencing dizziness, dysphagia during the past year, and urinary urgency during the previous six months.
Upon admission, the patient could not walk without assistance and needed intermittent bladder catheterization because of urinary incontinence. […] Informed consent was obtained from the patient and their family before treatment of oral Nilotinib 200 mg […]. The monthly monitoring included a physical and a neurological exam, an electrocardiogram, and complete blood count and chemistry.

[3] = average of five MSA patients, 24 weeks

## Cc1cn(-c2cc(NC(=O)c3ccc(C)c(Nc4nccc(-c5cccnc5)n4)c3)cc(C(F)(F)F)c2)cn1 [Nilotinib]
[1]; [3]
  decline in the UMSARS compared to baseline: 6.8 points
  decline in the UMSARS-II compared to baseline: 2.2 points
[1]; five MSA patients, end of 24 weeks
  non-motor symptoms (swallowing, constipation, urinary function): improvement of non-motor symptoms
PD and DLB subjects
  decline in UPDRS I-IV: 11.1 points
[2]; 24 weeks
  non-motor symptoms (swallowing, constipation, urinary function): significant improvement of non-motor symptoms
[2]; 24 weeks, could not walk without assistance upon admission
  walking ability at the end of the study: could walk slowly without assistance
[2]; 24 weeks, no hospitalization, resolved with continuous use
  nonserious adverse events: mild skin irritation, dizziness, and mild headache
[2]; week 24
  decrease on the UMSARS compared with baseline: 11 points
  decrease on the UMSARS-II compared with baseline: 6 points
